{
  "source": "ChEMBL document CHEMBL4020826",
  "about": "(J Med Chem, 2018)",
  "key": {"[1]": {"assay": "Half life in Sprague-Dawley rat at 1 mg/kg, iv measured over 8 hrs by LC-MS/MS analysis", "type": "ADME, organism-based", "conditions": "in vivo"}, "[2]": {"assay": "Drug metabolism in human liver microsomes at 4 uM", "type": "ADME, microsome", "conditions": "read-out: Drug metabolism"}, "[3]": {"assay": "Drug level in Sprague-Dawley rat CSF at 3 mg/kg, sc administered as single dose measured after 1 hr post dose by LC-MS/MS analysis", "type": "ADME, organism-based, Cerebrospinal fluid", "conditions": "read-out: Drug uptake"}, "[4]": {"assay": "Plasma concentration in Sprague-Dawley rat at 5 mg/kg/day, sc administered via infusion measured after 6 hrs post dose by LC-MS/MS analysis", "type": "ADME, organism-based"}, "[5]": {"assay": "Plasma concentration in Sprague-Dawley rat at 0.5 mg/kg/day, sc administered via infusion measured after 12 hrs post dose by LC-MS/MS analysis", "type": "ADME, organism-based"}, "[6]": {"target": "Metabotropic glutamate receptor 7 (Homo sapiens, UniProt Q14831)", "assay": "Agonist activity at recombinant human mGlu7 receptor expressed in hamster AV12 cells co-expressing rat EAAT1/Galpha15 assessed as induction of increase in Ca2+ flux after 2.5 mins by Fluo-3 AM dye-based FLIPR assay", "type": "functional, cell-based"}, "[7]": {"assay": "Plasma concentration in Sprague-Dawley rat at 0.3 mg/kg, sc administered as single dose measured after 1 hr post dose by LC-MS/MS analysis", "type": "ADME, organism-based"}, "[8]": {"assay": "Plasma concentration in Sprague-Dawley rat at 5 mg/kg/day, sc administered via infusion measured after 24 hrs post dose by LC-MS/MS analysis", "type": "ADME, organism-based"}, "[9]": {"assay": "Aqueous solubility of the compound at pH 7.4", "type": "physicochemical", "conditions": "buffer"}, "[10]": {"assay": "Half life in Sprague-Dawley rat at 3 mg/kg, sc measured over 8 hrs by LC-MS/MS analysis", "type": "ADME, organism-based", "conditions": "in vivo"}, "[11]": {"target": "T1, Metabotropic glutamate receptor 2 (Homo sapiens, UniProt Q14416)", "T1 sequence (Q14416 whole entry)": "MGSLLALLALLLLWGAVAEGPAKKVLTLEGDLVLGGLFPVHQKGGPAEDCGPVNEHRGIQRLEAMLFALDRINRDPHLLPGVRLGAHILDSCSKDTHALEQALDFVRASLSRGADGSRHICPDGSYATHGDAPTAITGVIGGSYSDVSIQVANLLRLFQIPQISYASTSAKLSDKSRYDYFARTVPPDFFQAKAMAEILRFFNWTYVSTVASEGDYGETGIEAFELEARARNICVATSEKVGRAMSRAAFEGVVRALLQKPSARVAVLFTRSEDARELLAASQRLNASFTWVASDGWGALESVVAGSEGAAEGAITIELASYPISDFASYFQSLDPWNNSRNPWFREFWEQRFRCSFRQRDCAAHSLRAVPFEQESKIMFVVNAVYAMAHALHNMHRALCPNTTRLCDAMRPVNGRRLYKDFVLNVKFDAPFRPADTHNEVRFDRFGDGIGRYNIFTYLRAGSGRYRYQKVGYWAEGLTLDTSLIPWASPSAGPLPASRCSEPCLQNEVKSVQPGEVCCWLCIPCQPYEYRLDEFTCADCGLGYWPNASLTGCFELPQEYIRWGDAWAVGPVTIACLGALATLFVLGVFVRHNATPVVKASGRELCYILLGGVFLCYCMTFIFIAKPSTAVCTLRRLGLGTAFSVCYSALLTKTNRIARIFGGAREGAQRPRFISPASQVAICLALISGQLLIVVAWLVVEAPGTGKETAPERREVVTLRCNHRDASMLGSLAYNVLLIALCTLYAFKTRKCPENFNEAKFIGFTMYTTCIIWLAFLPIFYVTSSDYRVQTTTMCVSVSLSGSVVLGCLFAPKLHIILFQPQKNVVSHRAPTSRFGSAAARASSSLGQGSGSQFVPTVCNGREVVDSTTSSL", "assay": "Agonist activity at human mGlu2 receptor expressed in HEK cells assessed as inhibition of forskolin-stimulated cAMP formation after 20 mins by HTRF assay", "type": "functional, cell-based"}, "[12]": {"target": "T2, Metabotropic glutamate receptor 5 (Homo sapiens, UniProt P41594)", "T2 sequence (P41594 whole entry)": "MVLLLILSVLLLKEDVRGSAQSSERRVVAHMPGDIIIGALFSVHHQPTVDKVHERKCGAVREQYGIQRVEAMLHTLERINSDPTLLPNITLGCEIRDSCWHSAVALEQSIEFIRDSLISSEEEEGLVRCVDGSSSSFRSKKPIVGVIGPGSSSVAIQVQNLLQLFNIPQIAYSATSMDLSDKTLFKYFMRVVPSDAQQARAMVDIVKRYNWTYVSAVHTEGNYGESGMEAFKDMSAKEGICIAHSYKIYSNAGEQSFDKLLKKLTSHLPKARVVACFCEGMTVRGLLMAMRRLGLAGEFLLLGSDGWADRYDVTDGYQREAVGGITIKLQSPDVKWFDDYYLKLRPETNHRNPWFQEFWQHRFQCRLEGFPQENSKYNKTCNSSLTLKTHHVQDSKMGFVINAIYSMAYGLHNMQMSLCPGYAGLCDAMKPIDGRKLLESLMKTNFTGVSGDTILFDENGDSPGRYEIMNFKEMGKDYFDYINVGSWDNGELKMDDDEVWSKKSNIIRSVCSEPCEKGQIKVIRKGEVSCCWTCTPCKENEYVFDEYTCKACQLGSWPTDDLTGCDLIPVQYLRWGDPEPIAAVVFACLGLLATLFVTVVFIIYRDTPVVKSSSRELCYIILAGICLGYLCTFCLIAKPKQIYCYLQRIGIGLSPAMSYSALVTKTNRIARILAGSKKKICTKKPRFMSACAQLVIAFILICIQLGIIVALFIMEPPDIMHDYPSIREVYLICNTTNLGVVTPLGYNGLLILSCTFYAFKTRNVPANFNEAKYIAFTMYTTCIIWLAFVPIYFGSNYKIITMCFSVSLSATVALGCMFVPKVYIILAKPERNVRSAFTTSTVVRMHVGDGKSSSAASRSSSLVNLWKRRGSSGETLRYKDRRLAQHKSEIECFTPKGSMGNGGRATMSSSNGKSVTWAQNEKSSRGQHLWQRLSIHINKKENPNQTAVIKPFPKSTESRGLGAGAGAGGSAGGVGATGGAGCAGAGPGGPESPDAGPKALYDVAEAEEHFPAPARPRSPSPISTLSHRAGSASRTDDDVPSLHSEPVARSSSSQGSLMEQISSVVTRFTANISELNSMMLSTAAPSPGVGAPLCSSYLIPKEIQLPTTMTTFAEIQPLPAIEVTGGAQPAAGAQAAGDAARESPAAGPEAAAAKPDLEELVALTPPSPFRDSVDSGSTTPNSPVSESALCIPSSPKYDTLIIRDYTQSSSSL", "assay": "Antagonist activity at recombinant human mGlu5 receptor expressed in hamster AV12 cells co-expressing rat EAAT1/Galpha15 assessed as inhibition of glutamate induced increase in Ca2+ flux after 2.5 mins by Fluo-3 AM dye-based FLIPR assay", "type": "functional, cell-based"}, "[13]": {"assay": "Plasma concentration in Sprague-Dawley rat at 1.5 mg/kg/day, sc administered via infusion measured after 48 hrs post dose by LC-MS/MS analysis", "type": "ADME, organism-based"}, "[14]": {"assay": "Plasma concentration in Sprague-Dawley rat at 0.5 mg/kg/day, sc administered via infusion measured after 6 hrs post dose by LC-MS/MS analysis", "type": "ADME, organism-based"}, "[15]": {"assay": "Plasma concentration in Sprague-Dawley rat at 5 mg/kg/day, sc administered via infusion measured after 72 hrs post dose by LC-MS/MS analysis", "type": "ADME, organism-based"}, "[16]": {"assay": "Drug metabolism in dog liver microsomes at 4 uM", "type": "ADME, Canis lupus familiaris, microsome", "conditions": "read-out: Drug metabolism"}, "[17]": {"target": "Group II metabotropic glutamate receptor (mGlu2/mGlu3) (Rattus norvegicus) (UniProt P31421+P31422)", "sequence (P31421 whole entry, looked up)": "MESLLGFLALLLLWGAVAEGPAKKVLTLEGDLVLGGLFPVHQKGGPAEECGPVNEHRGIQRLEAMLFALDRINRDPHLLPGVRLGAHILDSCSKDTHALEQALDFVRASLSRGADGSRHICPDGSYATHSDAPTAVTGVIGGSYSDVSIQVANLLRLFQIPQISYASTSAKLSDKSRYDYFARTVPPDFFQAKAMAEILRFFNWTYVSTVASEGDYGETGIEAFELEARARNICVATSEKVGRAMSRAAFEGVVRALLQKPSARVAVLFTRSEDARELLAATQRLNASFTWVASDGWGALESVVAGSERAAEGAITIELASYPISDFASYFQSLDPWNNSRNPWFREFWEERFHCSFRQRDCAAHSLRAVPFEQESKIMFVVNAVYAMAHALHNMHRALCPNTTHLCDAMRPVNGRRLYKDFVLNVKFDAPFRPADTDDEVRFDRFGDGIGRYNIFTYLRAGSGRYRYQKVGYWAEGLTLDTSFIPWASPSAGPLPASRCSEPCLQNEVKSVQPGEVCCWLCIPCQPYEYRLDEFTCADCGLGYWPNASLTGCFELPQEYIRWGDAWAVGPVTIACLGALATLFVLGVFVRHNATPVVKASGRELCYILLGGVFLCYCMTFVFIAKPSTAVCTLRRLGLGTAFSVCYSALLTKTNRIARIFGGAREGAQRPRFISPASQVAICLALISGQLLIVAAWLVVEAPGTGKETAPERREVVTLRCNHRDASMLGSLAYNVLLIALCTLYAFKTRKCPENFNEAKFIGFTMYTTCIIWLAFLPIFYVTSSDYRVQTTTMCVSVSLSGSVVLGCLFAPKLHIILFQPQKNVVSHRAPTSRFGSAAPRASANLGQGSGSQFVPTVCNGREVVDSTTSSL", "sequence (P31422 whole entry, looked up)": "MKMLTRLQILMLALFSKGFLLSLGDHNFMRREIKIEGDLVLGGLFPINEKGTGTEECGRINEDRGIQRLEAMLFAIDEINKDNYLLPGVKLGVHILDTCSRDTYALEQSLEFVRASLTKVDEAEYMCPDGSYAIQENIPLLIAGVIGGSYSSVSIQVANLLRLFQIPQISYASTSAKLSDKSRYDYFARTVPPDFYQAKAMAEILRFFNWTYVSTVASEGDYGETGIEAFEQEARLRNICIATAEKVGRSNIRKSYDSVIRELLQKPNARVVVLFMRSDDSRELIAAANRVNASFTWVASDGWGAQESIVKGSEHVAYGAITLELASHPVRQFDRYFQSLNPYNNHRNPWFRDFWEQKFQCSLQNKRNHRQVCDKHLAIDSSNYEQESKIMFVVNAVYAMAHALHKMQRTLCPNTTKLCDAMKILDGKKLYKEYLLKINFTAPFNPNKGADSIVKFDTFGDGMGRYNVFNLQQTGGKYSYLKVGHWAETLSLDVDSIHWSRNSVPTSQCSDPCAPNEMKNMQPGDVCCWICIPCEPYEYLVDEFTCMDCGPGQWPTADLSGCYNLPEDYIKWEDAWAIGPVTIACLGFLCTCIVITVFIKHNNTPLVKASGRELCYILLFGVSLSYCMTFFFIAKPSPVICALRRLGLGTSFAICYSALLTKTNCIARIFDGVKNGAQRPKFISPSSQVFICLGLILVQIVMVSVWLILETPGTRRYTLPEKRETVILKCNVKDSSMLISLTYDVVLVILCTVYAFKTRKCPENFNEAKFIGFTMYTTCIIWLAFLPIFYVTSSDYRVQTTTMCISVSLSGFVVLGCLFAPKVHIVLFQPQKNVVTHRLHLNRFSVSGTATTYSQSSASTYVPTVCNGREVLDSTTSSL", "conditions": "Sprague-Dawley", "description": "Agonist activity at mGlu2/3 receptor in Sprague-Dawley rat forebrain assessed as inhibition of spontaneous Ca2+ oscillations in cortical neurons after 300 secs by FLIPR assay"}, "[18]": {"assay": "Plasma concentration in Sprague-Dawley rat at 5 mg/kg/day, sc administered via infusion measured after 12 hrs post dose by LC-MS/MS analysis", "type": "ADME, organism-based"}, "[19]": {"assay": "Plasma concentration in Sprague-Dawley rat at 1 mg/kg, sc administered as single dose measured after 1 hr post dose by LC-MS/MS analysis", "type": "ADME, organism-based"}, "Rattus norvegicus [20]": {"system": "Rattus norvegicus", "assay": "Toxicity in Sprague-Dawley rat assessed as reduction in spontaneous locomotive activity at 30 mg/kg, sc after 30 mins", "type": "organism-based", "set-up": "scale not given: the % may be the effect or the level left", "conditions": "in vivo, 0.5 h"}, "[21]": {"assay": "Plasma concentration in Sprague-Dawley rat at 1.5 mg/kg/day, sc administered via infusion measured after 12 hrs post dose by LC-MS/MS analysis", "type": "ADME, organism-based"}, "[22]": {"target": "T1, Metabotropic glutamate receptor 2", "assay": "Displacement of [3H]-LY459477 from recombinant human mGlu2 receptor expressed in HEK cell membranes after 90 mins by liquid scintillation counting"}, "[23]": {"target": "T1, Metabotropic glutamate receptor 2", "assay": "Agonist activity at recombinant human mGlu2 receptor expressed in hamster AV12 cells co-expressing rat EAAT1/Galpha15 assessed as induction of increase in Ca2+ flux after 2.5 mins by Fluo-3 AM dye-based FLIPR assay"}, "[24]": {"assay": "Drug level in Sprague-Dawley rat CSF at 0.5 mg/kg/day, sc administered via infusion measured after 72 hrs post dose by LC-MS/MS analysis", "type": "ADME, organism-based, Cerebrospinal fluid", "conditions": "read-out: Drug uptake"}, "[25]": {"assay": "Fraction unbound in rat plasma", "type": "ADME, cell-free"}, "[26]": {"target": "T3, Metabotropic glutamate receptor 8 (Homo sapiens, UniProt O00222)", "T3 sequence (O00222 whole entry)": "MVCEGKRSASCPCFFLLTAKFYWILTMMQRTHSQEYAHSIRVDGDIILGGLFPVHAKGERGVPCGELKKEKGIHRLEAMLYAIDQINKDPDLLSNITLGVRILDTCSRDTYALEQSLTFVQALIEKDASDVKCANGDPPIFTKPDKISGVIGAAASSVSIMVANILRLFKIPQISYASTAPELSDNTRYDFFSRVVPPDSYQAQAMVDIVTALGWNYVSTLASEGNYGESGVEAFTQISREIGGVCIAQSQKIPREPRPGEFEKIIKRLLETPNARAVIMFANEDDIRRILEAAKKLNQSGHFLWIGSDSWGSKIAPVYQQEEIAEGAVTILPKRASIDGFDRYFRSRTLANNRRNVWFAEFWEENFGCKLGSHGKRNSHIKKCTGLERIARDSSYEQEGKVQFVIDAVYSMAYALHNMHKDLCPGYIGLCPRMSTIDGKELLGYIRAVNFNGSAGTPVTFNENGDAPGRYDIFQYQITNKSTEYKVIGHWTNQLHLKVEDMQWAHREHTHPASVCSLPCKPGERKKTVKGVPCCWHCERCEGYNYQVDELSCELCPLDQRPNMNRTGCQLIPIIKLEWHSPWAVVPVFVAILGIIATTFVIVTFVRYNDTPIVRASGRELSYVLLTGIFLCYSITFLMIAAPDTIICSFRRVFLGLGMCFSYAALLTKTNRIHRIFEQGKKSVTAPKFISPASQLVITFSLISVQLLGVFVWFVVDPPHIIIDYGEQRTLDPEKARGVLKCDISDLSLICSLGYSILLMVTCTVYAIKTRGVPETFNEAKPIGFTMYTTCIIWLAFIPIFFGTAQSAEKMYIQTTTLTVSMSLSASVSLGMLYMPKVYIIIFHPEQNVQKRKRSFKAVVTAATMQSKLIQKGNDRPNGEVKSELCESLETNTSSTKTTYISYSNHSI", "assay": "Agonist activity at recombinant human mGlu8 receptor expressed in hamster AV12 cells co-expressing rat EAAT1/Galpha15 assessed as induction of increase in Ca2+ flux after 2.5 mins by Fluo-3 AM dye-based FLIPR assay", "type": "functional, cell-based"}, "CYP2C9": {"target": "CYP2C9 (Homo sapiens, UniProt P11712)", "assay": "Inhibition of human CYP2C9 at 10 uM", "type": "ADME"}, "[27]": {"assay": "Drug level in Sprague-Dawley rat CSF at 0.3 mg/kg, sc administered as single dose measured after 1 hr post dose by LC-MS/MS analysis", "type": "ADME, organism-based, Cerebrospinal fluid", "conditions": "read-out: Drug uptake"}, "[28]": {"target": "Group II metabotropic glutamate receptor (mGlu2/mGlu3) (Rattus norvegicus, UniProt P31421+P31422)", "assay": "Displacement of [3H]-LY459477 from mGlu2/3 receptor in Sprague-Dawley rat forebrain primary cortical membranes after 90 mins by liquid scintillation counting"}, "Rattus norvegicus [29]": {"species_on_record": "Rattus norvegicus", "assay": "Drug metabolism in Sprague-Dawley rat assessed as (1S,2S,4S,5R,6S)-di-tert-butyl 4-amino-2-(tert-butoxycarbonylamino)bicyclo[3.1.0]hexane-2,6-dicarboxylate formation measured over 24 hrs", "type": "ADME"}, "[30]": {"target": "T2, Metabotropic glutamate receptor 5", "assay": "Agonist activity at recombinant human mGlu5 receptor expressed in hamster AV12 cells co-expressing rat EAAT1/Galpha15 assessed as induction of increase in Ca2+ flux after 2.5 mins by Fluo-3 AM dye-based FLIPR assay", "type": "functional, cell-based"}, "[31]": {"assay": "Plasma concentration in Sprague-Dawley rat at 0.5 mg/kg/day, sc administered via infusion measured after 72 hrs post dose by LC-MS/MS analysis", "type": "ADME, organism-based"}, "[32]": {"assay": "Plasma concentration in Sprague-Dawley rat at 15 mg/kg/day, sc administered via infusion measured after 6 hrs post dose by LC-MS/MS analysis", "type": "ADME, organism-based"}, "[33]": {"assay": "AUC in Sprague-Dawley rat at 1 mg/kg, iv measured over 8 hrs by LC-MS/MS analysis", "type": "ADME, organism-based", "set-up": "time < 8 hr, dose 1 mg/kg, route intravenous", "conditions": "in vivo"}, "[34]": {"assay": "Drug level in Sprague-Dawley rat CSF at 0.1 mg/kg, sc administered as single dose measured after 1 hr post dose by LC-MS/MS analysis", "type": "ADME, organism-based, Cerebrospinal fluid", "conditions": "read-out: Drug uptake"}, "[35]": {"assay": "Fraction unbound in rat brain", "type": "ADME, tissue-based"}, "[36]": {"assay": "Drug level in Sprague-Dawley rat CSF at 10 mg/kg, sc administered as single dose measured after 1 hr post dose by LC-MS/MS analysis", "type": "ADME, organism-based, Cerebrospinal fluid", "conditions": "read-out: Drug uptake"}, "[37]": {"target": "T3, Metabotropic glutamate receptor 8", "assay": "Antagonist activity at recombinant human mGlu8 receptor expressed in hamster AV12 cells co-expressing rat EAAT1/Galpha15 assessed as inhibition of glutamate induced increase in Ca2+ flux after 2.5 mins by Fluo-3 AM dye-based FLIPR assay", "type": "functional, cell-based"}, "[38]": {"assay": "Drug metabolism in mouse liver microsomes at 4 uM", "type": "ADME, microsome", "conditions": "read-out: Drug metabolism"}},
  "data": [
    {"molecule": "COc1cccc(C(=O)N[C@H]2C[C@@](N)(C(=O)O)[C@@H]3[C@@H](C(=O)O)[C@@H]32)c1", "values": [
      {"measurement": "half-life", "setting": "[1]", "value": 3.1, "unit": "h"},
      {"measurement": "metabolised at 4 µM", "setting": "[2]", "value": 12.3, "unit": "%"},
      {"measurement": "concentration at 1 h", "setting": "[3]", "value": 73.6, "unit": "nM"},
      {"measurement": "concentration at 6 h", "setting": "[4]", "value": 1280, "unit": "nM"},
      {"measurement": "concentration at 12 h", "setting": "[5]", "value": 143, "unit": "nM"},
      {"measurement": "EC50", "setting": "[6]", "value": "> 25", "unit": "µM"},
      {"measurement": "concentration at 1 h", "setting": "[7]", "value": 771, "unit": "nM"},
      {"measurement": "concentration at 24 h", "setting": "[8]", "value": 1300, "unit": "nM"},
      {"measurement": "solubility", "setting": "[9]", "value": "> 100", "unit": "µM"},
      {"measurement": "half-life", "setting": "[10]", "value": 2.9, "unit": "h"},
      {"measurement": "EC50", "setting": "[11]", "value": 0.0475, "unit": "µM"},
      {"measurement": "IC50", "setting": "[12]", "value": "> 12.5", "unit": "µM"},
      {"measurement": "concentration at 48 h", "setting": "[13]", "value": 224, "unit": "nM"},
      {"measurement": "concentration at 6 h", "setting": "[14]", "value": 156, "unit": "nM"},
      {"measurement": "concentration at 72 h", "setting": "[15]", "value": 1310, "unit": "nM"},
      {"measurement": "metabolised at 4 µM", "setting": "[16]", "value": 28.9, "unit": "%"},
      {"measurement": "EC50H", "setting": "[17]", "value": 0.00044, "unit": "µM"},
      {"measurement": "EC50L", "setting": "[17]", "value": 0.0436, "unit": "µM"},
      {"measurement": "concentration at 12 h", "setting": "[18]", "value": 1260, "unit": "nM"},
      {"measurement": "concentration at 1 h", "setting": "[19]", "value": "1510 to 1580", "unit": "nM"},
      {"measurement": "Activity", "setting": "Rattus norvegicus [20]", "value": 32, "unit": "%"},
      {"measurement": "concentration at 12 h", "setting": "[21]", "value": 389, "unit": "nM"},
      {"measurement": "Ki", "setting": "[22]", "value": 0.412, "unit": "µM"},
      {"measurement": "EC50", "setting": "[23]", "value": 0.277, "unit": "µM"},
      {"measurement": "concentration at 72 h", "setting": "[24]", "value": "< 7.5", "unit": "nM"},
      {"measurement": "fraction unbound", "setting": "[25]", "value": 1},
      {"measurement": "EC50", "setting": "[26]", "value": "> 25", "unit": "µM"},
      {"measurement": "inhibition at 10 µM", "setting": "CYP2C9", "value": 3.5, "unit": "%"},
      {"measurement": "concentration at 1 h", "setting": "[27]", "value": 6.91, "unit": "nM"},
      {"measurement": "Ki", "setting": "[28]", "value": 0.106, "unit": "µM"},
      {"measurement": "Drug metabolism", "setting": "Rattus norvegicus [29]", "value": "< 2.5", "unit": "nM"},
      {"measurement": "EC50", "setting": "[30]", "value": "> 25", "unit": "µM"},
      {"measurement": "concentration at 72 h", "setting": "[31]", "value": 91.2, "unit": "nM"},
      {"measurement": "concentration at 6 h", "setting": "[32]", "value": 3840, "unit": "nM"},
      {"measurement": "AUC at 8 h", "setting": "[33]", "value": 2.75, "unit": "µM·h"},
      {"measurement": "concentration at 1 h", "setting": "[34]", "value": 2.48, "unit": "nM"},
      {"measurement": "fraction unbound", "setting": "[35]", "value": 1},
      {"measurement": "concentration at 1 h", "setting": "[36]", "value": 249, "unit": "nM"},
      {"measurement": "IC50", "setting": "[37]", "value": "> 12.5", "unit": "µM"},
      {"measurement": "metabolised at 4 µM", "setting": "[38]", "value": 11.5, "unit": "%"}
    ]}
  ]
}
